These results are taken from ChEMBL document CHEMBL4476883, “Hydroxy formamide derivatives and their use” (2017).

The target of one assay is Tolloid-like protein 1 (Homo sapiens, UniProt O43897, I156V/N221S/V284A). Kind of assay: Inhibition of recombinant human TLL1 I156V/N221S/V284A mutant expressed in CHOE1A cells pre-incubated for 10 mins before promyostatin peptide substrate addition and measured after 60 mins by FRET based assay. Type of assay: cell-based.
The nature of assay [1]: Reduction in PICP levels in human cardiac fibroblasts incubated for 24 to 48 hrs by ELISA. The assay is classed as functional.
Assay [2] concerns the target T1, Bone morphogenetic protein 1 (Homo sapiens, UniProt P13497).
T1 sequence (P13497 whole entry): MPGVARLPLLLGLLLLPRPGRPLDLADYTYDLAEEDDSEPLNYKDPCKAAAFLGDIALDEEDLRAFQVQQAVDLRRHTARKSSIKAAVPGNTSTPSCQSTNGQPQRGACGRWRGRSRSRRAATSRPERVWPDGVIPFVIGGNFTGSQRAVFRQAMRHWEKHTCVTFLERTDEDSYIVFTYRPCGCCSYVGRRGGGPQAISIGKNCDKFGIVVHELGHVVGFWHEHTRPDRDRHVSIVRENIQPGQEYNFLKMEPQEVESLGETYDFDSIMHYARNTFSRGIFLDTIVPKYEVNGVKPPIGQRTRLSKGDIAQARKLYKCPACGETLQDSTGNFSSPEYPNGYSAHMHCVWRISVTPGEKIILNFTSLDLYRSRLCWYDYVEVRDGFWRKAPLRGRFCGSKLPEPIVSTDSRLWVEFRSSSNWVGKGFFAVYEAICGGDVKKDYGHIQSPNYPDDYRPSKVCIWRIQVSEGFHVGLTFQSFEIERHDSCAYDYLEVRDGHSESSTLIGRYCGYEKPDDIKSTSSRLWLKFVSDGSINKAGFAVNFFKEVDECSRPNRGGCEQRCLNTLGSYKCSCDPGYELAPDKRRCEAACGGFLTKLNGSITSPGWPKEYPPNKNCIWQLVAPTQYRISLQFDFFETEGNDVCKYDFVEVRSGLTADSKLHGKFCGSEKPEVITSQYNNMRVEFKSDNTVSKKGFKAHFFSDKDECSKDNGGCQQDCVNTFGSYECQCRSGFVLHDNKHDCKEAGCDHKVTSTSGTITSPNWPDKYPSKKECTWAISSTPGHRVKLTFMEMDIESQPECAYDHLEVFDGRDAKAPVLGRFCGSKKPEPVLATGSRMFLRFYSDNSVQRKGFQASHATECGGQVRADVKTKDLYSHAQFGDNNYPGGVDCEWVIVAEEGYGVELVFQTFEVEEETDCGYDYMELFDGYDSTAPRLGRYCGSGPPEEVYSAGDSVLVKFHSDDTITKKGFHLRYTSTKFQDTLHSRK
Kind of assay: Inhibition of C-terminal FLAG-6x-His epitope tagged and N-terminal human RAGE signal sequence tagged human BMP1 (23 to 721 amino acids) expressed in CHO-E1A cells pre-incubated for 10 mins before promyostatin peptide substrate addition and measured after 60 mins using 0.5 nM BMP1 by FRET based assay. Type of assay: cell-based.

The next assay addresses T2, Tolloid-like protein 2 (Homo sapiens, UniProt Q9Y6L7).
T2 sequence (Q9Y6L7 whole entry): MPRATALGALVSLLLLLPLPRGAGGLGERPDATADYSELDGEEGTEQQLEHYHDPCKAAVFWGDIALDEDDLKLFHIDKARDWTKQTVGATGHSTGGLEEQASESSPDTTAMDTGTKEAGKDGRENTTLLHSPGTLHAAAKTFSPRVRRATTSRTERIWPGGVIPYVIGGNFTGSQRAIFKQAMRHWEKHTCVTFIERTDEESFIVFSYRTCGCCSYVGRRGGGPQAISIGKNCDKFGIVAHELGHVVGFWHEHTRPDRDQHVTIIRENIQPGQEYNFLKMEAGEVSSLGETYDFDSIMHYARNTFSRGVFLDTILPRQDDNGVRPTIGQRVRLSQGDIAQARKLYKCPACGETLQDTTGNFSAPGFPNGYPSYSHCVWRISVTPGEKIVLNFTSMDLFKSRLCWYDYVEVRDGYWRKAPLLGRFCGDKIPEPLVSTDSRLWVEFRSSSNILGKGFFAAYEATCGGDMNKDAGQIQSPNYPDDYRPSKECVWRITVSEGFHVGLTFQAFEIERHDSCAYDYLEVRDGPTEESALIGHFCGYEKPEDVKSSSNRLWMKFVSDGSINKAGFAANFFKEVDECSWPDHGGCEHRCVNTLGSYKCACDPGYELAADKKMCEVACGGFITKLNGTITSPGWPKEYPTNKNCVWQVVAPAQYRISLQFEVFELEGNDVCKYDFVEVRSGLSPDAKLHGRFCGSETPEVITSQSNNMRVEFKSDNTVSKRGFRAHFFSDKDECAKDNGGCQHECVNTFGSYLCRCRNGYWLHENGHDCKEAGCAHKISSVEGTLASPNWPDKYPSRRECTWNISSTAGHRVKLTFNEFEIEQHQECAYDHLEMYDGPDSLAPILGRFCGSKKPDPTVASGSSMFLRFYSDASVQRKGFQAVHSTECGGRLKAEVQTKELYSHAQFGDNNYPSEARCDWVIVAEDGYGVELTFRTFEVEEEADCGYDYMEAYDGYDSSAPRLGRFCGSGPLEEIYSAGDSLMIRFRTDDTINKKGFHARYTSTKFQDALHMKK
Kind of assay: Inhibition of C-terminal Avi-6x-His epitope tagged and N-terminal human RAGE signal sequence tagged recombinant human TLL2 (26 to 1015 amino acids) expressed in CHOE1A cells incubated for 60 mins with promyostatin peptide substrate by FRET based assay. The assay is classed as cell-based.

Assay [3] has as its target T1, Bone morphogenetic protein 1. Kind of assay: Inhibition of C-terminal FLAG-6x-His epitope tagged and N-terminal human RAGE signal sequence tagged human BMP1 (23 to 721 amino acids) expressed in CHO-E1A cells pre-incubated for 10 mins before promyostatin peptide substrate addition and measured after 30 mins using 50 nM BMP1 by FRET based assay. The assay is classed as cell-based.

Some results are limits rather than exact numbers.

Chain of Tolloid-like protein 1 (O43897 148-1013 I156V/N221S/V284A limits assumed): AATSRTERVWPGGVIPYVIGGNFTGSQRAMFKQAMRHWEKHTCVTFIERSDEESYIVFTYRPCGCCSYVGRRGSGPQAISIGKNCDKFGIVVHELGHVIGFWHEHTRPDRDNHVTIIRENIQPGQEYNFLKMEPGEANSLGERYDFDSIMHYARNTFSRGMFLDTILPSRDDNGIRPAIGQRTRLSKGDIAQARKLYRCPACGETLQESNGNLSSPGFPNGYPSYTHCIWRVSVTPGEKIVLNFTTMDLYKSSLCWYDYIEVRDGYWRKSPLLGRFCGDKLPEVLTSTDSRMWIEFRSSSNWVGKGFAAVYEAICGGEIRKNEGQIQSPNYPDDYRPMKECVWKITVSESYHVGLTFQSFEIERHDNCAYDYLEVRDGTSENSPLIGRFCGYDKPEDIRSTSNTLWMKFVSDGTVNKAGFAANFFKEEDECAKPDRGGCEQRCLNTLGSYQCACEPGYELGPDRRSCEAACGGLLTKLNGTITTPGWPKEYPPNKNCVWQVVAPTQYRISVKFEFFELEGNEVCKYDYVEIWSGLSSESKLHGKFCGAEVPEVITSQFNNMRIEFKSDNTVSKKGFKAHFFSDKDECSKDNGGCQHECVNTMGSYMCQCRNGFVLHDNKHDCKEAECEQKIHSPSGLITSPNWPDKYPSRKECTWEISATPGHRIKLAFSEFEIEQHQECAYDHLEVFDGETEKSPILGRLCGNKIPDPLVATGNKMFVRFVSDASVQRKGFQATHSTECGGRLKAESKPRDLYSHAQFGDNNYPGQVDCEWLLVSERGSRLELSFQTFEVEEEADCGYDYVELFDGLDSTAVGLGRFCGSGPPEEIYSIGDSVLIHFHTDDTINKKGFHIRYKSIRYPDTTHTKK

`CCCCC[C@@H](C(=O)NCNC(=O)c1cccc(-c2cc(OCC)cc(P(=O)(O)O)c2)n1)[C@@H](CC)N(O)C=O`: the IC50 at Tolloid-like protein 1 was under 398 nM; in assay [1], under 20 µM; in assay [2] it was under 126 nM; at Tolloid-like protein 2, under 631 nM; in assay [3] it was under 251 nM.
In the same order, the values of `CCCCC[C@H](CN(O)C=O)C(=O)NCNC(=O)c1cccc(-c2nc(C)c(C)o2)c1` are under 398 nM, under 20 µM, under 126 nM, under 631 nM and under 251 nM.
In the same order, the values of `CCCCC[C@@H](C(=O)NCNC(=O)c1cccc(-c2ccc(C(=O)N[C@@H](CC(=O)O)C(=O)O)c(Cl)c2)n1)[C@@H](CC)N(O)C=O` are under 398 nM, under 20 µM, under 126 nM, under 631 nM and under 251 nM.
In the same order, the values of `CCCCC[C@@H](C(=O)NCNC(=O)c1cccc(-c2ccc(OC)c(C(=O)O)c2)n1)[C@@H](CC)N(O)C=O` are under 398 nM, under 20 µM, under 126 nM, under 631 nM and under 251 nM.
With `CCCCC[C@@H](C(=O)NCNC(=O)c1cccc(-c2ccc(C(=O)NCP(=O)(O)O)c(C)c2)n1)[C@@H](CC)N(O)C=O`, the IC50 on Tolloid-like protein 1 is under 398 nM; in assay [1], under 20 µM; in assay [2] it was under 126 nM; at Tolloid-like protein 2 it was under 631 nM; in assay [3], under 251 nM.
For the compound `CCCCC[C@@H](C(=O)NCNC(=O)c1cccc(-c2ccc(C(C)(C)C(=O)O)cc2)n1)[C@@H](CC)N(O)C=O`, the IC50 is under 398 nM on Tolloid-like protein 1; under 20 µM in assay [1]; under 126 nM in assay [2]; under 631 nM at Tolloid-like protein 2; under 251 nM in assay [3].
In the same order, the values of `CCCCC[C@@H](C(=O)NCNC(=O)c1ccc(F)c(-c2ccc(C(=O)O)c(OCC)c2)n1)[C@@H](CC)N(O)C=O` are under 398 nM, under 20 µM, under 126 nM, under 631 nM and under 251 nM.
In the same order, the values of `CCCCC[C@@H](C(=O)NCNC(=O)c1cccc(-c2cc(OCC)cc(P(=O)(O)O)c2)c1)[C@@H](CC)N(O)C=O` are under 398 nM, under 20 µM, under 126 nM, under 631 nM and under 251 nM.
In the same order, the values of `CCCCC[C@H](CN(O)C=O)C(=O)NCNC(=O)c1cccc(-c2cccc(OC)c2)c1F` are under 398 nM, under 20 µM, under 126 nM, under 631 nM and under 251 nM.
As for `CCCCC[C@H](CN(O)C=O)C(=O)NCNC(=O)c1cccc(-c2ccccc2)c1`, the half-maximal inhibitory concentration (IC50) was under 398 nM on Tolloid-like protein 1; under 20 µM in assay [1]; under 126 nM in assay [2]; under 631 nM at Tolloid-like protein 2; under 251 nM in assay [3].
In the same order, the values of `O=CN(O)C[C@@H](CC1CCCC1)C(=O)NCNC(=O)c1cccc(-c2ccc(C(F)(F)F)cc2)c1` are under 398 nM, under 20 µM, under 126 nM, under 631 nM and under 251 nM.
In the same order, the values of `CCCCC[C@@H](C(=O)NCNC(=O)c1cccc(-c2ccc(C(=O)O)c(O)c2)c1)[C@@H](CC)N(O)C=O` are under 398 nM, under 20 µM, under 126 nM, under 631 nM and under 251 nM.
In the same order, the values of `CCCCC[C@@H](C(=O)NCNC(=O)c1cccc(-c2ccc(C(=O)N[C@@H](CC(=O)O)C(=O)O)c(C)c2)n1)[C@@H](CC)N(O)C=O` are under 398 nM, under 20 µM, under 126 nM, under 631 nM and under 251 nM.
Take `CCCCC[C@@H](C(=O)NCNC(=O)c1cccc(-c2ccc(C(=O)N(CC(=O)O)CC(=O)O)c(OCC)c2)n1)[C@@H](CC)N(O)C=O`: the IC50 on Tolloid-like protein 1 is under 398 nM; in assay [1], under 20 µM; in assay [2], under 126 nM; at Tolloid-like protein 2, under 631 nM; in assay [3], under 251 nM.
Regarding `CCCCC[C@@H](C(=O)NCNC(=O)c1cc(C(=O)O)cc(-c2cc(OCC)cc(C(=O)O)c2)c1)[C@@H](CC)N(O)C=O`, the IC50 in assay [1] is under 20 µM; in assay [2], under 126 nM; in assay [3] it was under 251 nM.
As for `O=CN(O)C[C@@H](CC1CCCC1)C(=O)NCNC(=O)c1cccc(-c2cccc(O)c2)c1`, the IC50 at Tolloid-like protein 1 is under 398 nM; in assay [1], under 20 µM; in assay [2] it was under 126 nM; at Tolloid-like protein 2 it was under 631 nM; in assay [3], under 251 nM.
In the same order, the values of `CCCCC[C@H](CN(O)C=O)C(=O)NCNC(=O)c1cccc(-c2cnc(C)o2)c1` are under 398 nM, under 20 µM, under 126 nM, under 631 nM and under 251 nM.
In the same order, the values of `CCCCC[C@@H](C(=O)NCNC(=O)c1cccc(-c2ccc(C(=O)N[C@@H](CC(=O)O)C(=O)O)cc2)n1)[C@@H](CC)N(O)C=O` are under 398 nM, under 20 µM, under 126 nM, under 631 nM and under 251 nM.
In the same order, the values of `CCCCC[C@@H](C(=O)NCNC(=O)c1cccc(-c2ccc(C(=O)N[C@@H](CC(=O)O)C(=O)O)c(OCC)c2)c1)[C@@H](CC)N(O)C=O` are under 398 nM, under 20 µM, under 126 nM, under 631 nM and under 251 nM.
On to `CCCCC[C@@H](C(=O)NCNC(=O)c1cccc(-c2cc(OCC)cc(C(=O)N(CC(=O)O)CC(=O)O)c2)n1)[C@@H](CC)N(O)C=O`, for which the IC50 was under 398 nM on Tolloid-like protein 1; under 20 µM in assay [1]; under 126 nM in assay [2]; under 631 nM at Tolloid-like protein 2; under 251 nM in assay [3].
In the same order, the values of `CCCCC[C@@H](C(=O)NCNC(=O)c1cccc(-c2cc(OCC)cc(S(=O)(=O)O)c2)c1)[C@@H](CC)N(O)C=O` are under 398 nM, under 20 µM, under 126 nM, under 631 nM and under 251 nM.
